According to patent US20250108088A1, “REGENERATIVE PEPTIDES AND METHODS FOR USE THEREOF” (priority 2023, published 2025):

System: Normal human dermal fibroblasts (HNDF)
Assay: Myofibroblast transition assay (MFT), aSMA immunofluorescence
Assay type: cell-based
Conditions: N = 3; for Myofibroblast transition (MFT), aSMA/cell, % change relative to control: TGF-Beta induced HNDF, control of no peptide; for MFT, Representative value from experiments (% change relative to control): most effective significant concentration of 10, 100, 1000 ng/ml
From the text: The myofibroblast transition (MFT) assay determines the effect of the peptide on inhibiting the transition of fibroblasts to myofibroblasts. The extracellular matrix produced by myofibroblasts may be produced in excess and may not be remodeled during tissue healing, leaving behind the fibrous connective tissue that forms a scar. Thus, the ability to regulate the degree of MFT may enable control of scarring. To determine if the peptides provided herein affect MFT, the following assay was performed.
Normal human dermal fibroblasts (HNDF) were cultured in high glucose Dulbecco's modified eagle medium (DMEM) supplemented with 10% fetal bovine serum (FBS) and 5 ml of 10,000 units of penicillin/streptomycin. Cells were cultured on 10 cm plates with media changes every 2 days. Cells were passaged in 0.25% Trypsin/EDTA after achieving 80% confluency.
To induce myofibroblast transition (MFT), normal human dermal fibroblasts (HNDFs) were split from 1-10 cm plates to 5-96 well plates. Cells were then allowed to grow the next day. The following day, cells were serum starved (1% FBS in DMEM) for 4 hours prior to adding 20 ng/ml of TGF-Beta to all wells of the plate. 1000 μM of Vactosertib (TEW-7197/EW-7197) was added to serve as a positive control and different concentrations of peptides were added to serve as the test articles. The cells were then exposed to the compounds for 5 more days before fixation.
The cells were fixed in paraformaldehyde (PFA) for 10-15 minutes, then washed 2× in PBS. Cells were blocked in 4% BSA for 30 minutes at 23° C. Cells were stained with the primary alpha-smooth muscle actin (aSMA) antibody (1:100) for 1 hour at 23° C. or left out at 4° C. overnight. Cells were rinsed 2× with BSA and then the secondary antibody mix was added: Alexa 488 (1:500) and DAPI (1:1000) for 30 min at 23° C. or 1 hr at 4° C. The plates were covered during staining, then rinsed 2× in BSA and stored in PBS.
Plates were imaged using the Celigo Imaging Cytometer by Nexcelcom. The ratio of fluorescent expression of alpha-smooth muscle actin (aSMA) and DAPI were quantified to determine the amount of aSMA/cell.
The change (normalized to the control) in MFT for each concentration is shown along with the p value for all experiments relative to the control of no peptide.

| Substance | Myofibroblast transition (MFT), aSMA/cell, % change relative to control (10 ng/ml peptide) [%] | Myofibroblast transition (MFT), aSMA/cell, % change relative to control (100 ng/ml peptide) [%] | MFT, Representative value from experiments (% change relative to control) | Myofibroblast transition (MFT), aSMA/cell, % change relative to control (1000 ng/ml peptide) [%] |
| --- | --- | --- | --- | --- |
| AKEVEKH [MBBey4] | −0.2205 | −0.4435 | −0.4435 p = (0.007) % | – |
| ASCRC [MBb5] | −0.298 | −0.409 | −0.6162 p = (0.01) % | −0.6162 |
| ASLHGNGLRKRLRKFRNK [MBb66] | – | −0.3446 | −0.3446 p = (0.024) % | – |
| AVHELGH [MBb24] | – | −0.1419 | −0.1419 p = (0.003) % | – |
| CDADKKDYCLFGRCQYIVELETFRCRCQKGYYGERCVYLEL [EA-1] | −0.1401 | −0.2928 | −0.2928 p = (0.016) % | −0.0906 |
| CGGLPGLRKRLRKFRNK [MBb41] | – | −0.6154 | −0.6154 p = (0.03) % | −0.2177 |
| DCRICS [MBa1] | – | −0.2174 | −0.2174 p = (0.04) % | – |
| DPCPLCGLRKRLRKFRNK [MBb12] | – | −0.4465 | −0.4465 p = (0.037) % | – |
| DVLDKRLFWIQYNREG [MBWhit45] | −0.6471 | −0.6265 | −0.6471 p = (0.018) % | −0.6136 |
| EEIDA [MBb1.2] | – | −0.3496 | −0.3496 p = (0.006) % | – |
| EELTRGLRKRLRKFRNK [MBb23] | – | −0.1203 | −0.1203 p = (0.016) % | – |
| EKKNPGLRKRLRKFRNK [MBb73] | – | −0.07558 | −0.07558 p = (0.04) % | – |
| ENIKKGLRKRLRKFRNK [MBb37] | – | −0.1426 | −0.1426 p = (0.032) % | – |
| EYENPGLRKRLRKFRNK [MBb10] | – | −0.2694 | −0.2694 p = (0.023) % | – |
| FFLRIHPDGRVDGVR [MBWhit1] | – | −0.3667 | −0.3667 p = (0.038) % | – |
| GDIR VR (GDIRVR) [MBWhit33] | – | −0.3175 | −0.3527 p = (0.032) % | −0.3527 |
| GESKGLGLRKRLRKFRNK [MBb36] | −0.07698 | −0.1964 | −0.1964 p = (0.002) % | – |
| HIWA VVPCIR (HIWAVVPCIR) [MBBey3] | – | −0.1442 | −0.1442 p = (0.037) % | – |
| HNGILID [MBBey24] | −0.05283 | 0.06835 | −0.05283 p = (0.005) % | 0.2745 |
| IAHELGH [MBb2.2] | −0.1592 | −0.1476 | −0.1928 p = (0.021) % | −0.1928 |
| IAHELGHNLGMSH [MBb25] | – | −0.1769 | −0.1769 p = (0.008) % | – |
| IGERCQYRDLKWWELR [MBWhit44] | −0.702 | −0.5753 | −0.702 p = (0.025) % | −0.6111 |
| IGPGLP [MBb76] | – | −0.03421 | −0.1847 p = (0.009) % | −0.1847 |
| IRTLDCDADKKDYCLFGRCQYIVELETFRCRCQKGYYGERCVYLEL [EA-2] | −0.1343 | −0.3241 | −0.3241 p = (0.014) % | −0.00716 |
| ITCPHCQ [MBa9] | – | – | −0.3194 p = (0.02) % | −0.3194 |
| KTHPGG [MBWhit38] | – | −0.3798 | −0.3798 p = (0.006) % | – |
| LKEKKPAKEK [PC-1] | – | – | −0.4788 p = (0.038) % | −0.4788 |
| LPRDER [MBb3.2] | – | – | −0.3874 p = (0.003) % | −0.3874 |
| MDQGYPKETVDDFPG [MBBey12] | – | −0.6665 | −0.6665 p = (0.007) % | −0.4491 |
| NTCHQCGLRKRLRKFRNK [MBb35] | – | −0.3719 | −0.4001 p = (0.016) % | −0.4001 |
